In the supplement of paper PMC4858399:
Counter-ions that a name gives are not always drawn.

Tests used:
Details in all cases: exposure time 48 h
[1] = test system: Caenorhabditis elegans N2; experiment: AC50 for larval growth inhibition (Hill fit); higher = less potent
Procedure, shortened: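 AC50 values come from a constrained Hill fit by weighted genetic-algorithm regression and are censored when out of range. The fit used only wells with at least 10 worms. Each well of a 96-well plate held 50 synchronised C. elegans N2 L1 larvae in K-medium with killed OP50, 1% DMSO and 0.5–200 µM chemical for 48 h at 20°C. A COPAS Biosort recorded each worm's size as extinction, which was log-transformed and averaged per well.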

[2] = test system: Caenorhabditis elegans N2; experiment: lowest effective concentration for larval growth inhibition (size below effect threshold); higher = less potent
Procedure, shortened: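 L1 larvae of C. elegans N2 (50 per 96-well) were grown in K-medium with killed bacteria and 1% DMSO, with the chemical at 0.5, 1, 5, 10, 50, 100 or 200 µM, for 48 h at 20°C. Per-worm extinction from the Biosort stood for size and was log-transformed into well means. For each chemical, the lowest effective concentration is the first dose where plate-adjusted mean size falls under the threshold and stays under it at the higher doses, using a threshold of 5.665.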

[3] = test system: Caenorhabditis elegans N2; experiment: mean nematode size ln(EXT) after 48 h, plate-adjusted (DMSO control set to 6) (ln(EXT), control-adjusted); higher = larger nematodes / less growth inhibition
Procedure, shortened: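 A growth model removed debris from Biosort extinction readings taken on each worm. These worms were synchronised C. elegans N2 L1 larvae, 50 per well in 4–6 wells per treatment, grown for 48 h at 20°C in K-medium with killed OP50, 1% DMSO and 0.5–200 µM chemical. Readings were natural-logged and averaged by well to give mean size. On each plate, the vehicle control mean was subtracted and 6 was added.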

| SMILES | AC50 for larval growth inhibition [1] [µM] | lowest effective concentration [2] [µM] | mean nematode size ln(EXT) (ln) ([3]; 0.5 µM) | mean nematode size ln(EXT) (ln) ([3]; 1 µM) | mean nematode size ln(EXT) (ln) ([3]; 5 µM) | mean nematode size ln(EXT) (ln) ([3]; 10 µM) | mean nematode size ln(EXT) (ln) ([3]; 50 µM) | mean nematode size ln(EXT) (ln) ([3]; 100 µM) | mean nematode size ln(EXT) (ln) ([3]; 200 µM) |
| --- | --- | --- | --- | --- | --- | --- | --- | --- | --- |
| Nc1ccc(N=Nc2ccccc2)cc1 [4-Aminoazobenzene] | 31.4 | 5 | 5.63 | 5.75 | 5.62 | 5.49 | 4.06 | 3.92 | 3.23 |
| O=C(O)C(F)(F)C(F)(F)C(F)(F)C(F)(F)C(F)(F)C(F)(F)C(F)(F)C(F)(F)C(F)(F)F [Perfluorodecanoic acid] | 14.6 | 5 | 5.85 | 5.87 | 5.14 | 4.6 | 4.06 | 3.96 | 3.16 |
| CCCCCC/C(C=O)=C\c1ccccc1 [2-Benzylideneoctanal] | 28.8 | 50 | 5.84 | 5.85 | 5.79 | 5.69 | 5.13 | 5.22 | 5.01 |
| O=C(Nc1ccc(Cl)cc1)Nc1ccc(Cl)c(Cl)c1 [3,4,4'-Trichlorocarbanilide] | 0.964 | ≤ 0.5 | 5.51 | 4.97 | 4.28 | 4.21 | 4.26 | 4.1 | 3.81 |
| O=[N+]([O-])c1ccc(Cl)c(Cl)c1 [1,2-Dichloro-4-nitrobenzene] | 111 | 100 | 5.95 | 5.94 | 5.93 | 5.99 | 5.79 | 5.66 | 5.54 |
| CC[C@H](C)[C@H]1O[C@]2(C=C[C@@H]1C)C[C@@H]1C[C@@H](C/C=C(\C)[C@@H](O[C@H]3C[C@H](OC)[C@@H](O[C@H]4C[C@H](OC)[C@@H](O)[C@H](C)O4)[C@H](C)O3)[C@@H](C)/C=C/C=C3\CO[C@@H]4[C@H](O)C(C)=C[C@@H](C(=O)O1)[C@]34O)O2.CO[C@H]1C[C@H](O[C@H]2[C@H](C)O[C@@H](O[C@@H]3/C(C)=C/C[C@@H]4C[C@@H](C[C@]5(C=C[C@H](C)[C@@H](C(C)C)O5)O4)OC(=O)[C@@H]4C=C(C)[C@@H](O)[C@H]5OC/C(=C\C=C\[C@@H]3C)[C@]54O)C[C@@H]2OC)O[C@@H](C)[C@@H]1O [Abamectin] | < 0.5 | ≤ 0.5 | 3.68 | 3.31 | 3.37 | 3.26 | 3.38 | 3.35 | 3.24 |
| CCC(C)(C)c1ccc(O)c(C(C)(C)CC)c1 [Phenol, 2,4-bis(1,1-dimethylpropyl)-] | 175 | 10 | 5.8 | 5.87 | 5.76 | 5.65 | 5.4 | 4.93 | 4.37 |
| CO/C=C(/C(=O)OC)c1ccccc1Oc1cc(Oc2ccccc2C#N)ncn1 [Azoxystrobin] | > 200 | 200 | 5.84 | 5.87 | 5.93 | 5.9 | 5.8 | 5.85 | 5.5 |
| CCOP(=S)(OCC)SCCSCC [Disulfoton] | > 200 | 200 | 6.1 | 6.13 | 5.9 | 6.03 | 5.93 | 5.72 | 5.04 |
| CCCCc1oc2ccccc2c1C(=O)c1cc(I)c(OCCN(CC)CC)c(I)c1 [Amiodarone HCl] | 31.9 | 50 | 5.9 | 5.96 | 5.82 | 5.72 | 4.41 | 3.85 | 3.8 |
| CCN(CC)C(=O)c1cc(S(=O)(=O)Cc2ccccc2)c(N2CCC(c3ccccc3)CC2)cc1N(CC)CCN(C)C | 72.6 | 10 | 5.74 | 5.7 | 5.67 | 5.57 | 4.82 | 4.3 | 3.47 |
| CCOC(=O)[C@]1(c2ccccc2)Oc2ccccc2[C@@H]1N | 56.5 | 10 | 5.84 | 5.73 | 5.71 | 5.27 | 4.94 | 5.43 | 4.03 |
| CNc1cnn(-c2cccc(C(F)(F)F)c2)c(=O)c1Cl [Norflurazon] | 104 | 200 | 5.99 | 5.96 | 6.11 | 6.19 | 6.05 | 5.79 | 5.15 |
| O=[N+]([O-])c1c(Cl)c(Cl)c(Cl)c(Cl)c1Cl [Quintozene] | 194 | 200 | 5.85 | 5.74 | 5.72 | 5.88 | 5.93 | 5.94 | 5.11 |
| Cc1c(F)c(F)c(COC(=O)[C@@H]2[C@H](/C=C(\Cl)C(F)(F)F)C2(C)C)c(F)c1F (racemic) [Tefluthrin] | > 200 | 50 | 5.7 | 5.77 | 5.71 | 5.79 | 5.39 | 5.29 | 5.13 |
| CCCN(CCC)c1c([N+](=O)[O-])cc(C(C)C)cc1[N+](=O)[O-] [Isopropalin] | > 200 | 50 | 5.89 | 5.9 | 5.87 | 5.73 | 5.47 | 5.14 | 4.96 |
| CCCCOCN(C(=O)CCl)c1c(CC)cccc1CC [Butachlor] | 13.8 | 200 | 5.93 | 6.1 | 6.07 | 6.12 | 6.05 | 6.08 | 5.44 |

| SMILES | AC50 for larval growth inhibition [1] [µM] | lowest effective concentration [2] [µM] | mean nematode size ln(EXT) (ln) ([3]; 0.5 µM) | mean nematode size ln(EXT) (ln) ([3]; 1 µM) | mean nematode size ln(EXT) (ln) ([3]; 5 µM) | mean nematode size ln(EXT) (ln) ([3]; 10 µM) | mean nematode size ln(EXT) (ln) ([3]; 50 µM) | mean nematode size ln(EXT) (ln) ([3]; 100 µM) | mean nematode size ln(EXT) (ln) ([3]; 200 µM) |
| --- | --- | --- | --- | --- | --- | --- | --- | --- | --- |
| COC(=O)[C@H]1[C@H]2C[C@@H]3c4[nH]c5cc(OC)ccc5c4CCN3C[C@H]2C[C@@H](OC(=O)c2cc(OC)c(OC)c(OC)c2)[C@@H]1OC [Reserpine] | 12.6 | 10 | 5.86 | 5.87 | 5.74 | 5.66 | 5.04 | 4.95 | 5.17 |
| CCC(C)(C)C(=O)O[C@H]1C[C@@H](C)C=C2C=C[C@H](C)[C@H](CC[C@@H]3C[C@@H](O)CC(=O)O3)[C@H]21 [Simvastatin] | > 200 | 100 | 5.79 | 5.93 | 6 | 5.84 | 5.7 | 5.39 | 4.67 |
| O=C1c2c(O)cccc2Cc2cccc(O)c21 [Dithranol] | 189 | 200 | 5.83 | 5.82 | 5.81 | 5.77 | 5.67 | 5.74 | 4.35 |
| Cc1cc(SC2=C(O)C[C@@](CCc3ccc(N)cc3)(C(C)C)OC2=O)c(C(C)(C)C)cc1CO | 186 | 200 | 5.92 | 6.15 | 6.21 | 6.22 | 6.19 | 6.07 | 5.64 |
| CCOC(=O)C(C)OC(=O)c1cc(Oc2ccc(C(F)(F)F)cc2Cl)ccc1[N+](=O)[O-] (configuration not stated) [Lactofen] | 138 | 50 | 5.89 | 5.94 | 5.8 | 5.86 | 5.24 | 5.25 | 4.89 |
| CCCCCCC(C)OC(=O)COc1nc(F)c(Cl)c(N)c1Cl (configuration not stated) [Fluroxypyr-meptyl] | 185 | 200 | 5.84 | 5.84 | 6.02 | 5.94 | 5.83 | 6.29 | 4.64 |
| Cc1nn(C)c(Oc2ccccc2)c1C=NOCc1ccc(C(=O)OC(C)(C)C)cc1 [(Z,E)-Fenpyroximate] | < 0.5 | ≤ 0.5 | 4.99 | 4.67 | 4.2 | 4.2 | 4.09 | 4.05 | 3.39 |
| CC(C1CC1)C(O)(Cn1cncn1)c1ccc(Cl)cc1 (configuration not stated) [Cyproconazole] | > 200 | 200 | 5.92 | 5.92 | 5.85 | 5.99 | 6.17 | 6.33 | 5.59 |
| COc1cccc(C(=O)NN(C(=O)c2cc(C)cc(C)c2)C(C)(C)C)c1C [Methoxyfenozide] | 195 | 200 | 6.16 | 6.1 | 6.05 | 5.9 | 6 | 6.01 | 4.43 |
| Oc1ccccc1-c1ccccc1 [2-Phenylphenol] | 179 | 200 | 5.84 | 5.73 | 5.68 | 5.99 | 6.05 | 5.96 | 5.13 |
| Cc1[nH]c(=O)n(C(C)(C)C)c(=O)c1Cl [Terbacil] | > 200 | 200 | 5.34 | 5.77 | 5.2 | 5.76 | 5.1 | 5.87 | 5.23 |
| CC(C)(c1cc(Br)c(O)c(Br)c1)c1cc(Br)c(O)c(Br)c1 [3,3',5,5'-Tetrabromobisphenol A] | 28.3 | 10 | 5.84 | 5.92 | 5.93 | 5.56 | 4.75 | 4.36 | 4.27 |
| Nc1c(Cl)cc([N+](=O)[O-])cc1Cl [Dichloran] | 14.4 | 50 | 6.01 | 5.9 | 5.93 | 5.73 | 4.94 | 4.92 | 4.96 |
| CCCCCCc1ccc(O)cc1O [4-Hexylresorcinol] | 181 | 50 | 6 | 5.89 | 5.83 | 5.84 | 5.6 | 5.03 | 4.47 |
| O=NN(c1ccccc1)c1ccccc1 [N-Nitrosodiphenylamine] | > 200 | 200 | 6.12 | 6.03 | 6.08 | 6.08 | 6 | 5.87 | 5.26 |
| COP(=O)(OC)OC=C(Cl)Cl [Dichlorvos] | 80.4 | 50 | 6.07 | 6.12 | 5.84 | 5.87 | 5.05 | 4.4 | 3.3 |
